Reference: patent US20100256040A1 (priority 2001, published 2010)
Read-outs that look alike come from different tables or passages of the source. Where a SMILES comes first, the peptide text is derived from it. Where no end group is shown, it is not given here.

Legend:
HIV-1 = assay: microbe, parasite or virus in culture
Description: Fresh human blood was obtained commercially from Interstate Blood Bank, Inc. (Memphis, Tenn.). The lymphotropic clinical isolate HIV-1ROJO was obtained from a pediatric patient attending the AIDS Clinic at the University of Alabama at Birmingham. The laboratory-adapted HIV-1IIIB strain was propagated and tittered in fresh human PBMCs; pre-titered aliquots of HIV-1ROJO and Hiv-1IIIB were removed from the freezer (−80° C.) and thawed rapidly to room temperature in a biological safety cabinet immediately before use. Phytohemagglutinin (PHA-P) was obtained from Sigma (St. Louis, Mo.) and recombinant IL-2 was obtained from Amgen (San Francisco, Calif.).
Fresh human PBMCs were isolated from screened donors, seronegative for HIV and HBV. Leukophoresed blood was diluted 1:1 with Dulbecco's phosphate buffered saline (PBS), layered over 14 mL of Ficoll-Hypaque density gradient in a 50 mL centrifuge tube and then centrifuged for 30 minutes at 600×g. Banded PBMCs were aspirated from the resulting interface and subsequently washed 2× with PBS by low speed centrifugation. After the final wash, cells were enumerated by trypan blue exclusion and re-suspended at 1×10^7 cells/mL in RPMI 1640 supplemented with 15% Fetal Bovine Serum (FBS), 2 mM L-glutamine, 4 μg/mL PHA-P. The cells were allowed to incubate for 48-72 hours at 37° C. After incubation, PBMCs were centrifuged and reset in RPMI 1640 with 15% FBS, 2 mM L-glutamine, 100 U/ml penicillin, 100 μg/mL streptomycin, 10 μg/mL gentamycin, and 20 U/mL recombinant human IL-2. PBMCs were maintained in this medium at a concentration of 1-2×10^6 cells/mL with biweekly medium changes until used in the assay protocol.
For the standard PBMC assay, PHA-P stimulated cells from at least two normal donors were pooled, diluted in fresh medium to a final concentration of 1×10^6 cells/mL, and plated in the interior wells of 96 well round bottom microplate at 50 μL/well (5×10^4 cells/well). Test drug dilutions were prepared at a 2× concentration in microtiter tubes and 100 μL of each concentration was placed in appropriate wells in a standard format. 50 μl, of a predetermined dilution of virus stock was placed in each test well (final MOI≈0.1). Wells with cells and virus alone were used for virus control. Separate plates were prepared identically without virus for drug cytotoxicity studies using an XTT assay system. The PBMC cultures were maintained for seven days following infection, at which time cell-free supernate samples were collected and assayed for reverse transcriptase activity as described below.
A microtiter based reverse transcriptase (RT) reaction was utilized. See Buckheit et al., AIDS Research and Human Retroviruses 7:295-302 (1991). Tritiated thymidine triphosphate (NEN) (TTP) was resuspended in distilled H2O at 5 Ci/ml. Poly rA and oligo dT were prepared as a stock solution which was kept at −20° C. The RT reaction buffer was prepared fresh on a daily basis and consists of 125 μl 1M EGTA, 125 μl dH2O, 110 μl 10% SDS, 50 μl 1M Tris (pH 7.4), 50 μl 1M DTT, and 40 μl 1M MgCL2. These three solutions were mixed together in a ratio of 2 parts TTP, 1 part poly rA:oligo dT, and 1 part reaction buffer. Ten microliters of this reactions mixture was placed at a round bottom microtiter plate and 15 μl of virus containing supernatant was added and mixed. The plate was incubated at 37° C. in a water bath with a solid support to prevent submersion of the plate and incubated for 60 minutes. Following reaction, the reaction volume was spotted onto pieces of DE81 paper, washed 5 times 5 minutes each in a 5% sodium phosphate buffer, 2 times 1 minute each in distilled water, 2 times for 1 minute each in 70% ethanol, and then dried. Opti-Fluor-O (Packard) was added to each sample and incorporated radioactivity was quantified utilizing a Wallac 1450 MicroBeta Plus liquid scintillation counter.

[1] = Cytotoxicity measurement by MTS staining in PBMC cultures; type: cell-based; settings: human
Description: At assay termination the assay plates were stained with the soluble tetrazolium-based dye MTS (CellTiter Reagent, Promega) to determine cell viability and quantify compound toxicity. MTS is metabolized by the mitochondria enzymes of metabolically active cells to yield a soluble formazan product, allowing the rapid quantitative analysis cell viability and compound cytotoxicity. […] At termination of the assay, 20 μl of MTS reagent was added per well. The wells were incubated overnight for the HIV cytoprotection assay at 37° C. The incubation intervals were chosen based on empirically determined times for optimal dye reduction in each cell type. Adhesive plate sealers were used in place of the lids, the sealed plate was inverted several times to mix the soluble formazan product and the plate was read spectrophotometrically at 490 nm with a Molecular Devices Vmax plate reader.

Tsg101 = biological target: T1, Tsg101 (Homo sapiens, UniProt Q99816); assay: Yeast two-hybrid filter lift assay for β-Gal activity (Tsg101 / p6gag interaction); type: binding; set-up: key to Interactions Between Tsg101 and p6gag (β-Gal activity): +: Positive β-Gal activity indicates that the p6gag wild type or mutant protein interacts with Tsg101; settings: for ability to bind Tsg101 protein / Tsg101-p6gag interaction (in words): yeast two-hybrid
T1 construct: expressed in transfected cells
Excerpt: Yeast two-hybrid assays were utilized to determine the effect of amino acid substitution mutations in the PTAP motif of HIV p6gag on the interaction between Tsg101 and p6gag. To prepare a yeast two-hybrid activation domain-Tsg101 construct, a DNA fragment encompassing the full-length coding sequence for Tsg101 according to GenBank Accession No. U82130 was obtained by PCR from a human fetal brain cDNA library and cloned into the EcoRI/Pst1 sites of the activation domain parent plasmid GADpN2 (LEU2, CEN4, ARS1, ADH1p-SV40NLS-GAL4 (768-881)-MCS (multiple cloning site)-PGK1t, AmpR, ColE1_ori).
To prepare the yeast two-hybrid DNA binding domain-HIV1 p6gag construct, a DNA fragment corresponding to the HIV1 p6 peptide derived from the HIV1.NL43 strain GAG protein was obtained by PCR from the NL43 containing plasmid R9Δapa and was cloned into the EcoRI/Sal1 sites of the binding domain parent plasmid pGBT.Q. The sequence of the amplified insert is shown in SEQ ID NO:3485. In addition, the amino acid sequence of the HIV-1NYU/BR5 GAG is provided in GenBank under Accession No. AF324493 and is listed in SEQ ID NO:3484.
The following amino acid substitution mutations were introduced by PCR into the HIV1 p6gag sequence in the yeast two-hybrid binding domain-HIV1 p6gag construct described above. The mutations were verified by DNA sequence analysis.
To test the effect of the mutations, yeast cells of the strain Y189 purchased from Clontech (ura3-52 his3*200 ade2-101 trp1-901 leu2-3,112 met gal4 gal80 URA3::GAL1p-lacZ) were co-transformed with the activation domain-Tsg101 construct and one of the binding domain-mutant p6gag constructs or the binding domain-wild type p6gag construct. Filter lift assays for β-Gal activity were conducted by lifting the transformed yeast colonies with filters, lysing the yeast cells by freezing and thawing, and contacting the lysed cells with X-Gal. […] All binding domain constructs were also tested for self-activation of β-Gal activity.

Full length Tsg101 = biological target: T2, Full length Tsg101 (Homo sapiens, UniProt Q99816); assay: Yeast two-hybrid liquid culture β-galactosidase assay; type: binding; settings: p6 point mutants
T2 construct: expressed in transfected cells
T2 sequence (Q99816 1-390): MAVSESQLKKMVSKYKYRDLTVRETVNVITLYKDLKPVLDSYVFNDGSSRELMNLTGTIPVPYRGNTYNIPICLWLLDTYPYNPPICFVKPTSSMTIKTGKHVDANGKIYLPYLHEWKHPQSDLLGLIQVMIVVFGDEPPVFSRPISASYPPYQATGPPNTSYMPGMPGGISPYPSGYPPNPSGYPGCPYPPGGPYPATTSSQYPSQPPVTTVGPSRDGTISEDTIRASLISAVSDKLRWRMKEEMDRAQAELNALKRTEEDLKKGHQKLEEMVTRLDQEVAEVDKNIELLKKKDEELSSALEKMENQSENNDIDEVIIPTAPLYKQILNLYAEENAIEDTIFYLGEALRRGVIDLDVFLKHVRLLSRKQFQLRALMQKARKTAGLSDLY
Description: The interactions between TSG101 and wild-type p6gag (WT) or the p6gag PTAP mutants were further quantitated by performing liquid culture β-galactosidase assays. Cultures were grown overnight in synthetic media (-Leu, -Trp, +glucose) in 96 well plates, normalized for optical density, and lysed by addition of 6× lysis/substrate solution in 6×Z-buffer (60 mM KCl, 6 mM MgSO4, 360 mM Na2HPO4, 240 mM NaH2PO4, 6 mg/ml CPRG, 0.12 U/ml lyticase, 0.075% NP-40). Cultures were incubated for 2 hr at 37° C., clarified by centrifugation, and the optical absorbance of each supernatant was measured (575 nm). Full length Tsg101 bound wild-type p6 in the two-hybrid liquid culture assay, resulting in high levels of β-galactosidase activity (>300-fold over background). […] Each of these point mutations also arrests HIV-1 budding at a late stage (Huang et al. 1995).

[2] = fresh human PBMCs, seven days following infection, RT activity
[3] = PBMC plates without virus, tetrazolium dye staining, read-out: TC50

Cc1cn([C@H]2C[C@H](N=[N+]=[N-])[C@@H](CO)O2)c(=O)[nH]c1=O [AZT, 3′-Azido-3′-deoxythymidine, reference compound]
IC50 (HIV-1; Human immunodeficiency virus 1, PBMC, 168 h): 0.008 µM
Comments (anti-HIV activity) (HIV-1; fresh human PBMCs): Control; Highly
CC50 at 7 days [1]: > 1 µM

C[C@H](NC(=O)[C@@H](NC(=O)[C@@H]1CCCN1C(=O)[C@H](CCC(=O)O)NC(=O)[C@@H]1CCCN1C(=O)[C@H](CCCNC(=N)N)NC(=O)[C@H](CCCNC(=N)N)NC(=O)[C@H](CCCNC(=N)N)NC(=O)[C@H](CCCNC(=N)N)NC(=O)[C@H](CCCNC(=N)N)NC(=O)[C@H](CCCNC(=N)N)NC(=O)[C@H](CCCNC(=N)N)NC(=O)[C@H](CCCNC(=N)N)NC(=O)[C@@H](N)CCCNC(=N)N)[C@@H](C)O)C(=O)N1CCC[C@H]1C(=O)N[C@@H](CCC(=O)O)C(=O)N[C@@H](CCC(=O)O)C(=O)O [MPI-PEP1, NH2-(R)9-PEPTAPEE-COOH] (H-RRRRRRRRRPEPTAPEE-OH)
Comments (anti-HIV activity) (HIV-1; fresh human PBMCs): Active
IC50 (HIV-1; [2]): 21.7 µM
CC50 at 7 days [1, 3]: > 200 µM

CC(C)C[C@H](NC(=O)[C@H](C)NC(=O)[C@@H](NC(=O)[C@@H]1CCCN1C(=O)[C@H](CCC(=O)O)NC(=O)[C@@H]1CCCN1C(=O)[C@H](CCCNC(=N)N)NC(=O)[C@H](CCCNC(=N)N)NC(=O)[C@H](CCCNC(=N)N)NC(=O)[C@H](CCCNC(=N)N)NC(=O)[C@H](CCCNC(=N)N)NC(=O)[C@H](CCCNC(=N)N)NC(=O)[C@H](CCCNC(=N)N)NC(=O)[C@H](CCCNC(=N)N)NC(=O)[C@@H](N)CCCNC(=N)N)[C@@H](C)O)C(=O)N[C@@H](CCC(=O)O)C(=O)N[C@@H](CCC(=O)O)C(=O)O [MPI-PEP2, NH2-(R)9-PEPTALEE-COOH] (H-RRRRRRRRRPEPTALEE-OH)
Comments (anti-HIV activity) (HIV-1; fresh human PBMCs): Inactive
IC50 (HIV-1; [2]): > 200 µM
CC50 at 7 days [1, 3]: > 200 µM

C[C@H](NC(=O)[C@@H](NC(=O)[C@@H]1CCCN1C(=O)[C@H](CCC(=O)O)NC(=O)[C@@H]1CCCN1C(=O)[C@@H](N)CCCNC(=N)N)[C@@H](C)O)C(=O)N1CCC[C@H]1C(N)=O [MPI-PEP3, NH2-RPEPTAP-CO-NH2] (H-RPEPTAP-NH2)
Comments (anti-HIV activity) (HIV-1; fresh human PBMCs): Inactive
IC50 (HIV-1; [2]): > 200 µM
CC50 at 7 days [1, 3]: > 200 µM

p6(A9R) (LQSRPEPTRPPEESFRFGEETTTPSQKQEPIDKELYPLASLRSLFGSDPSSQ; not fully specified)
ability to bind Tsg101 protein / Tsg101-p6gag interaction (in words) (Tsg101): abolishes the p6 binding affinity
β-galactosidase activity (in words) (Full length Tsg101): reduced β-galactosidase activity to background levels

p6(E6G) (LQSRPGPTAPPEESFRFGEETTTPSQKQEPIDKELYPLASLRSLFGSDPSSQ; not fully specified)
Interactions Between Tsg101 and p6gag (β-Gal activity) (Tsg101; yeast Y189 co-transformed with activation domain-Tsg101 and binding domain-p6gag construct, filter lift, X-Gal): +
ability to bind Tsg101 protein / Tsg101-p6gag interaction (in words) (Tsg101): did not result in the elimination of the Tsg101-p6gag interaction
ability to bind Tsg101 protein / Tsg101-p6gag interaction (in words) (Tsg101; listed as E6G): capable of binding

p6(P7L) (LQSRPELTAPPEESFRFGEETTTPSQKQEPIDKELYPLASLRSLFGSDPSSQ; not fully specified)
ability to bind Tsg101 protein / Tsg101-p6gag interaction (in words) (Tsg101): abolishes the p6 binding affinity
β-galactosidase activity (in words) (Full length Tsg101): reduced β-galactosidase activity to background levels

p6(P10L) (LQSRPEPTALPEESFRFGEETTTPSQKQEPIDKELYPLASLRSLFGSDPSSQ; not fully specified)
ability to bind Tsg101 protein / Tsg101-p6gag interaction (in words) (Tsg101): abolishes the p6 binding affinity
β-galactosidase activity (in words) (Full length Tsg101): reduced β-galactosidase activity to background levels
